Experimental data reported in the NIST ThermoML archive (doi:10.1016/j.fluid.2005.03.028).
± gives the expanded uncertainty stated by the source.

Test: excess molar enthalpy (molar enthalpy of mixing); xn = mol fraction of the nth substance listed
Details: 303.15 K, 101.3 kPa, Liquid

Molecule Cc1cccc(C)n1 [2,6-dimethylpyridine] + CCCCCC has an excess molar enthalpy (x1 = 0.1061) of 0.1 ± 0.0043 kcal/mol, an excess molar enthalpy (x1 = 0.2206) of 0.171 ± 0.00598 kcal/mol and an excess molar enthalpy (x1 = 0.2931) of 0.202 ± 0.00693 kcal/mol. It also gave an excess molar enthalpy (x1 = 0.3822) of 0.215 ± 0.00741 kcal/mol, an excess molar enthalpy (x1 = 0.4338) of 0.221 ± 0.00765 kcal/mol and an excess molar enthalpy (x1 = 0.4341) of 0.22 ± 0.00765 kcal/mol. It also gave an excess molar enthalpy (x1 = 0.4507) of 0.226 ± 0.00765 kcal/mol, an excess molar enthalpy (x1 = 0.5516) of 0.223 ± 0.00765 kcal/mol and an excess molar enthalpy (x1 = 0.6172) of 0.215 ± 0.00741 kcal/mol. The excess molar enthalpy (x1 = 0.7034) was 0.191 ± 0.00669 kcal/mol, the excess molar enthalpy (x1 = 0.7949) was 0.141 ± 0.00526 kcal/mol and the excess molar enthalpy (x1 = 0.884) was 0.0844 ± 0.00382 kcal/mol.
With Cc1cccc(C)n1 [2,6-dimethylpyridine] + CCCCCCC the excess molar enthalpy (x1 = 0.1137) was 0.114 ± 0.00454 kcal/mol, the excess molar enthalpy (x1 = 0.1939) was 0.16 ± 0.00574 kcal/mol and the excess molar enthalpy (x1 = 0.26) was 0.194 ± 0.00669 kcal/mol. It also gave an excess molar enthalpy (x1 = 0.313) of 0.211 ± 0.00717 kcal/mol, an excess molar enthalpy (x1 = 0.318) of 0.216 ± 0.00741 kcal/mol and an excess molar enthalpy (x1 = 0.365) of 0.226 ± 0.00765 kcal/mol. The excess molar enthalpy (x1 = 0.4264) was 0.237 ± 0.00813 kcal/mol, the excess molar enthalpy (x1 = 0.46) was 0.241 ± 0.00813 kcal/mol and the excess molar enthalpy (x1 = 0.5077) was 0.242 ± 0.00813 kcal/mol. The excess molar enthalpy (x1 = 0.58) was 0.227 ± 0.00789 kcal/mol, the excess molar enthalpy (x1 = 0.7064) was 0.202 ± 0.00693 kcal/mol and the excess molar enthalpy (x1 = 0.7851) was 0.165 ± 0.00598 kcal/mol. For the same molecule, the excess molar enthalpy (x1 = 0.857) was 0.123 ± 0.00478 kcal/mol.
With Cc1cccc(C)n1 [2,6-dimethylpyridine] + CCCCCCCC the excess molar enthalpy (x1 = 0.108) was 0.12 ± 0.00478 kcal/mol, the excess molar enthalpy (x1 = 0.199) was 0.172 ± 0.00621 kcal/mol and the excess molar enthalpy (x1 = 0.202) was 0.182 ± 0.00645 kcal/mol. It also gave an excess molar enthalpy (x1 = 0.346) of 0.233 ± 0.00789 kcal/mol, an excess molar enthalpy (x1 = 0.413) of 0.246 ± 0.00837 kcal/mol and an excess molar enthalpy (x1 = 0.506) of 0.251 ± 0.0086 kcal/mol. For the same molecule, the excess molar enthalpy (x1 = 0.597) was 0.246 ± 0.00837 kcal/mol, the excess molar enthalpy (x1 = 0.698) was 0.217 ± 0.00741 kcal/mol and the excess molar enthalpy (x1 = 0.708) was 0.208 ± 0.00717 kcal/mol.
Cc1cncc(C)c1 [3,5-dimethylpyridine] + CCCCCC showed an excess molar enthalpy (x1 = 0.1064) of 0.137 ± 0.00526 kcal/mol, an excess molar enthalpy (x1 = 0.1889) of 0.201 ± 0.00693 kcal/mol and an excess molar enthalpy (x1 = 0.314) of 0.259 ± 0.00884 kcal/mol. For the same molecule, the excess molar enthalpy (x1 = 0.434) was 0.275 ± 0.00932 kcal/mol, the excess molar enthalpy (x1 = 0.5119) was 0.278 ± 0.00932 kcal/mol and the excess molar enthalpy (x1 = 0.6092) was 0.26 ± 0.00884 kcal/mol. It also gave an excess molar enthalpy (x1 = 0.7259) of 0.214 ± 0.00741 kcal/mol, an excess molar enthalpy (x1 = 0.775) of 0.191 ± 0.00669 kcal/mol and an excess molar enthalpy (x1 = 0.8934) of 0.0978 ± 0.0043 kcal/mol. It also gave an excess molar enthalpy (x1 = 0.9495) of 0.0492 ± 0.00311 kcal/mol.
With Cc1cncc(C)c1 [3,5-dimethylpyridine] + CCCCCCC the excess molar enthalpy (x1 = 0.0712) was 0.0951 ± 0.00406 kcal/mol, the excess molar enthalpy (x1 = 0.2287) was 0.217 ± 0.00741 kcal/mol and the excess molar enthalpy (x1 = 0.2961) was 0.258 ± 0.00884 kcal/mol. For the same molecule, the excess molar enthalpy (x1 = 0.3799) was 0.281 ± 0.00956 kcal/mol, the excess molar enthalpy (x1 = 0.4475) was 0.296 ± 0.01 kcal/mol and the excess molar enthalpy (x1 = 0.497) was 0.293 ± 0.0098 kcal/mol. It also gave an excess molar enthalpy (x1 = 0.5013) of 0.294 ± 0.0098 kcal/mol, an excess molar enthalpy (x1 = 0.5962) of 0.283 ± 0.00956 kcal/mol and an excess molar enthalpy (x1 = 0.6871) of 0.249 ± 0.00837 kcal/mol. For the same molecule, the excess molar enthalpy (x1 = 0.7428) was 0.219 ± 0.00741 kcal/mol and the excess molar enthalpy (x1 = 0.85) was 0.137 ± 0.00526 kcal/mol.
For Cc1cncc(C)c1 [3,5-dimethylpyridine] + CCCCCCCC, the excess molar enthalpy (x1 = 0.1056) was 0.133 ± 0.00502 kcal/mol, the excess molar enthalpy (x1 = 0.2504) was 0.24 ± 0.00813 kcal/mol and the excess molar enthalpy (x1 = 0.3971) was 0.294 ± 0.0098 kcal/mol. The excess molar enthalpy (x1 = 0.4266) was 0.301 ± 0.01 kcal/mol, the excess molar enthalpy (x1 = 0.4971) was 0.304 ± 0.0103 kcal/mol and the excess molar enthalpy (x1 = 0.5313) was 0.305 ± 0.0103 kcal/mol. It also gave an excess molar enthalpy (x1 = 0.5417) of 0.303 ± 0.01 kcal/mol, an excess molar enthalpy (x1 = 0.6032) of 0.293 ± 0.0098 kcal/mol and an excess molar enthalpy (x1 = 0.7289) of 0.237 ± 0.00813 kcal/mol. The excess molar enthalpy (x1 = 0.8127) was 0.184 ± 0.00645 kcal/mol and the excess molar enthalpy (x1 = 0.914) was 0.0915 ± 0.00406 kcal/mol.
